In experiment [1] the test system is HT-29 colorectal cancer cells. Briefly: Induction of apoptosis, Annexin V-FITC / propidium iodide flow cytometry. The following applies: 24 hours. The format is cell-based, human. The protocol:
(§1) HT-29 human colorectal cancer cells (ATCC HTB-38, Manassas, VA, USA) were cultured in McCoy's 5A medium supplemented with 10% fetal bovine serum (FBS), 2 mM glutamine, 50 U/ml penicillin, 50 μg/ml of streptomycin at 37° C., in atmosphere containing 5% CO2. Subsequently, the cells were counted in a hemocytometer and were transferred in the amount of 1×10^6 cells per well in 1 ml of culture medium from Costar flasks (Sigma, USA) to Nunc 6-well plates (Wiesbaden, Germany). The cells were transferred using calcium-free phosphate buffer with the addition of 0.05% trypsin and 0.02% EDTA. […] Within the subsequent 24 hours the cells covered at least 80% of the surface of each plate well. The cells prepared in this manner were incubated with the examined compounds for 24 hours and then used for further experiments.
Induction of apoptosis was examined by a method using fluorescein isothiocyanate-labelled Annexin V (Annexin V-FITC) which forms complexes with phosphatidylserine in the presence of calcium ions. The complexes were determined using FITC Annexin V Apoptosis Detection Kit II (BD Biosciences, USA) and a flow cytometer BD FACSCanto H (BD Biosciences Systems, San Jose, CA, USA). The analysis of results was carried out by means of FACSDiva software (BD Biosciences Systems, San Jose, CA USA).
DLD-1 and HT-29 cells were incubated for 24 hours in an incubator at 37° C. in a 5% CO2 atmosphere with medium containing the examined compounds according to the invention at specific concentrations. Both examined compounds were used at a concentration of 1.5 μM and 3.0 μM. After the incubation period, the medium was removed, a binding buffer included in the kit was added and the cells were suspended in the buffer. In order to calibrate the apparatus two control samples, i.e. a positive one and a negative one, were prepared. The positive control constituted a reference of control cells in which apoptosis was induced by the addition of 3% formaldehyde. Three control samples were prepared. The first sample contained control cells and propidium iodide, the second sample contained control cells and Annexin V-FITC and the third sample contained control cells, propidium iodide and Annexin V-FITC. After adding 2 μl of 3% formaldehyde the cells were placed in a refrigerator for 10 minutes. Cells that were not treated with any agent constituted the negative control. The cells from the control samples and the cells treated by the examined compounds according to the invention (1×10^6 cells/ml) suspended in the buffer included in the kit were subjected to further examination. 200 μl suspension were taken from each examined sample and were transferred to test tubes. 3 μl Annexin V-FITC and 5 μl propidium iodide (PI) were added to each sample in room temperature and the samples were placed in a dark place for 15 minutes. Cell suspension prepared in this manner was analyzed within one hour in the flow cytometer BD FACSCanto II (BD Biosciences Systems, San Jose, CA, USA) by means of FACSDiva software. The results of the above experiment can be described as follows: live cells (double negative sample—lack of reaction with Annexin V and P), early apoptosis (Annexin V positive and PI negative sample), late apoptosis (Annexin V positive and PI positive sample) and necrosis (Annexin V negative and PI positive sample)

For experiment [2], the system named is AGS human gastric cancer cells. The experiment is described as follows: DNA biosynthesis, [3H]-thymidine incorporation. The class given is cell-based. The following applies: 24-hour incubation. The method, then: AGS human gastric cancer cells (ATCC CRL-1739, Manassas, VA, USA) were cultured in DMEM (Dulbecco's Modified Eagle's Medium) supplemented with 10% fetal bovine serum (FBS), 2 mM glutamine, 50 U/ml penicillin, 50 μg/ml streptomycin at 37° C., in atmosphere containing 5% CO2. Subsequently, the cells were counted in a hemocytometer and transferred in the amount of […] cells per well in 1 ml of culture medium from Costar flasks (Sigma, USA) to Nunc 6-well plates (Wiesbaden, Germany). The cells were transferred using calcium-free phosphate buffer with the addition of 0.05% trypsin and 0.02% EDTA. […] Within the subsequent 24 hours the cells covered at least 80% of the surface of each plate well. The cells prepared in this manner were incubated with the examined compounds for 24 hours and then used for further experiments.
(§2) The effect of the examined compounds according to the invention on the process of DNA biosynthesis was assessed by measuring incorporation of [^3H]-thymidine into DNA of the examined cells. […] After 5 minutes, the cell lysate obtained was transferred to scintillation vials containing 2 ml of scintillation fluid and radioactivity was measured. […] The values from the examined samples were expressed as percentage of the control value. The significance level p was determined by the nonparametric Mann-Whitney U test by means of SigmaStat software. […]
Background: Dividing cells build labelled thymidine or BrdU into new DNA.

The test system of experiment [3] is DLD-1 human colorectal cancer cells. The experiment is described as follows: DNA biosynthesis, [3H]-thymidine incorporation. The following applies: DLD-1, 24-hour incubation. The class given is cell-based. The protocol: DLD-1 human colorectal cancer cells (ATCC CCL-221, Manassas, VA, USA) were grown in DMEM (Dulbecco's Modified Eagle's Medium) supplemented with 10% fetal bovine serum (FBS), 2 mM glutamine, 50 U/ml penicillin, 50 μg/ml streptomycin at 37° C., in atmosphere containing 5% of CO2. Then the cells were counted in a hemocytometer and transferred in the amount of 1×10^6 cells per well in 1 ml of culture medium from Costar flasks (Sigma, USA) to Nunc 6-well plates (Wiesbaden, Germany). The cells were transferred using calcium-free phosphate buffer with the addition of 0.05% trypsin and 0.02% EDTA. […] Within the subsequent 24 hours the cells covered at least 80% of the surface of each plate well. The cells prepared in this manner were incubated with the examined compounds for 24 hours and then used for further experiments.
as §2

The test system of experiment [4] is HT-29 human colorectal cancer cells. The experiment is described as follows: DNA biosynthesis, [3H]-thymidine incorporation. The class given is cell-based. Particulars: HT-29, 24-hour incubation. The method, then:
as §1, §2

Setting [5] is: HT-29, 1.5 μM, listed as compound of Formula 2.

On to `COC(=O)C1CCCN1S(=O)(=O)c1ccc(-n2nc(C)c3nc4nnnn4nc32)cc1` (stereo not shown) [Compound of Formula 2, Methyl 1-[4-(7-methyl-5H-pyrazol[4,3-e]tetrazolo[4,5-b][1,2,4]triazyn-5-yl)phenylsulfonyl]pyrrolidine-2-carboxylate], for which the Early apoptosis in experiment [1] (HT-29, 1.5 μM) was found to be 9.0%; in experiment [1] (setting [5]), 9.0%; in experiment [1] (HT-29, 3.0 μM) it was 9.6%. Moreover, the Late apoptosis was 4.7% in experiment [1] (HT-29, 1.5 μM); 4.7% in experiment [1] (setting [5]); 9.4% in experiment [1] (HT-29, 3.0 μM). For the same compound, the Live cells was determined as 85.3% in experiment [1] (HT-29, 1.5 μM) and 78.3% in experiment [1] (HT-29, 3.0 μM). The Necrosis in experiment [1] (HT-29, 1.5 μM) came out at 1.0%; in experiment [1] (setting [5]) it was 1.0%; in experiment [1] (HT-29, 3.0 μM), 2.7%; in experiment [1] (HT-29, 3.0 μM, listed as compound of Formula 2), 2.7%. The “apoptotic cells (total)” value in experiment [1] (HT-29, 3.0 μM) turned out to be 19.0%. Further, the IC50 in experiment [2] worked out at 550 ± 10 nM; in experiment [3], 560 ± 10 nM; in experiment [4], 3620 ± 20 nM.

In experiment [1] (HT-29, 1.5 μM), `COC(=O)C1CC(O)CN1S(=O)(=O)c1ccc(-n2nc(C)c3nc4nnnn4nc32)cc1` (stereo not shown) [Compound of Formula 3, Methyl 4-hydroxy-1-[4-(7-methyl-5H-pyrazolo[4,3-e]tetrazolo[4,5-b][1,2,4]triazyn-5-yl)phenylsulfonyl]pyrrolidine-2-carboxylate] yielded an Early apoptosis of 14.5%, a Late apoptosis of 16.0%, a Live cells of 65.0% and a Necrosis of 4.5%. In experiment [1] (HT-29, 1.5 μM), the “early and late apoptotic cells (total)” value is listed as 30.5%. The compound further gave a Necrosis in experiment [1] (HT-29, 1.5 μM, listed as compound of Formula 3) of 4.5%. In experiment [1] (HT-29, 3.0 μM), this compound gave an Early apoptosis of 25.2%, a Late apoptosis of 13.7% and a Necrosis of 2.6%. The half-inhibitory concentration (IC50) in experiment [2] is 1050 ± 10 nM. The IC50 in experiment [3] worked out at 1550 ± 20 nM. The compound further registered an IC50 in experiment [4] of 2300 ± 20 nM.

As usually defined, the IC50 is the concentration that inhibits the measured activity by half. Read a high IC50 as weaker potency in that assay.

Source of the values: US12319699B2, “L-proline sulfonamide derivatives comprising pyrazolo[4,3-e]tetrazolo[4,5-b][1,2,4]triazine system, method of manufacturing thereof, uses thereof and pharmaceutical composition comprising the same” (UNIWERSYTET MEDYCZNY W BIALYMSTOKU, priority 2018, dated 2025).
